Like-named read-outs stand apart in the source and are kept apart here. A value given as a limit tells only on which side of the number the result lay.

Data set [1] deals with CYP1A1 mRNA. Description: CYP1A1 mRNA induction in primary human hepatocytes (qRT-PCR). An excerpt: (§1) Primary human hepatocytes used in this study were obtained from two sources: (i) from multiorgan donor HH52; the use of liver cells of donor HH52 was approved by “Ethical committee at the Faculty Hospital Olomouc”,and it was in accordance with Transplantation law #285/2002 Sb; “Ethical committee at the Faculty Hospital Olomouc” waived the authors from obtaining consent from the next of kin, regarding human hepatocytes obtained from liver donor HH52. (ii) long-term human hepatocytes in monolayer Batch HEP220770 (person), Batch HEP220774 (person) were purchased from Biopredic International (Biopredic International, Rennes, France). Cells were cultured in serum-free medium. Cultures were maintained at 37°C and 5% CO2 in a humidified incubator.
(§2) Total RNA was isolated using TRI Reagent (Molecular Research Center, Cincinnati, OH, USA). cDNA was synthesized from 1000 ng of total RNA using M-MLV Reverse Transcriptase (Finnzymes, Espoo, Finland) at 42°C for 60 min in the presence of random hexamers (Takara, Shiga, Japan). qRT-PCR was carried out using LightCycler FastStart DNA MasterPLUS SYBR Green I (Roche Diagnostic Corporation, Prague, Czech Republic) on a Light Cycler 480 II apparatus (Roche Diagnostic Corporation). CYP1A1, CYP1A2 and GAPDH mRNAs were determined as described previously. Measurements were performed in triplicates. Gene expression was normalized to GAPDH as a housekeeping gene.
We examined a capability of omeprazole and lansoprazole to induce CYP1A1 and CYP1A2 mRNA and protein in primary human hepatocytes, which is a more physiological and metabolically competent cell model. Human hepatocytes were treated for 24 h or 48 h with TCDD (5 nM), vehicle (DMSO; 0.1% V/V) and tested compounds.
Figure 3 Effects of omeprazole and lansoprazole enantiomers on CYP1A1 mRNA, protein and EROD activity in primary human hepatocytes. Panel A and Panel B: RT-PCR analyses of CYP1A1 and CYP1A2 mRNA and western blots of CYP1A1 and CYP1A2 from two different cultures (HH52 and Hep220770) are shown. Human hepatocytes were incubated for 24 h (mRNA analysis) or 48 (protein analysis) with S-OME, R-OME, rac-OME, S-LAN, R-LAN, rac-LAN, TCDD and vehicle (DMSO; 0.1% v/v). RT-PCR data are the mean ± SD from triplicate measurements and are expressed as fold induction over vehicle-treated cells. Data were normalized to GAPDH mRNA levels. Density of bands in western blots was quantified by densitometry and the values are indicated along with respective blots. Panel C: EROD and cytotoxicity: Human hepatocytes (culture Hep220774) were treated for 24 h with S-OME, R-OME, rac-OME, S-LAN, R-LAN, rac-LAN, TCDD and vehicle (DMSO; 0.1% v/v). Upper bar graph: An activity of 7-ethoxyresorufin- O-deethylase (EROD) was measured by fluorescent spectrophotometry with 530 nm excitation and 590 nm emission filters. Treatments were performed in triplicates. The data are expressed as fold induction over the value from control cells. Lower bar graph: A conventional MTT test was performed and absorbance was measured at 540 nm. Treatments were performed in triplicates. The data are expressed as percentage of viability of control cells.
A general note: Real-time PCR tracks product formation cycle by cycle.

The subject of a further data set is CYP1A2 mRNA. Description: CYP1A2 mRNA induction in primary human hepatocytes (qRT-PCR). To be noted: hepatocyte culture Hep220770, 24 h.
Excerpt: as §1
Total RNA was isolated using TRI Reagent (Molecular Research Center, Cincinnati, OH, USA). cDNA was synthesized from 1000 ng of total RNA using M-MLV Reverse Transcriptase (Finnzymes, Espoo, Finland) at 42°C for 60 min in the presence of random hexamers (Takara, Shiga, Japan). qRT-PCR was carried out using LightCycler FastStart DNA MasterPLUS SYBR Green I (Roche Diagnostic Corporation, Prague, Czech Republic) on a Light Cycler 480 II apparatus (Roche Diagnostic Corporation). CYP1A1, CYP1A2 and GAPDH mRNAs were determined as described previously. Measurements were performed in triplicates. […]

For data set [2], the system named is aryl hydrocarbon receptor AhR. Description: AhR gene reporter assay, agonist mode. To be noted: for AhR agonist efficacy: AZ-AHR cells, 24 h, compared to 5 nM TCDD, calculated at 100 µM compound (stated for omeprazole); for EC50 at 24 h: human. As to the method:
(§3) A stably transfected gene reporter cell line AZ-AHR, derived from human hepatoma HepG2 cells transfected with a construct containing several AhR binding sites upstream of a luciferase reporter gene, was used for assessment of AhR transcriptional activity. Cells were incubated for 24 h with tested compounds and/or vehicle (DMSO; 0.1% v/v), in the presence or absence of TCDD (10 nM; AZ-AHR cells) or DEX (100 nM; AZ-GR cells). After the treatments, cells were lysed and luciferase activity was measured. In parallel, cell viability was determined by conventional MTT test.
(§4) Figure 1 Effect of omeprazole and lansoprazole enantiomers on transcriptional activity of aryl hydrocarbon receptor AhR in human gene reporter cell line AZ-AHR. The cells were seeded in 96-well plates and stabilized for 16 h. Panels A and B: Cells were incubated for 24 h with S-OME, R-OME, rac-OME, S-LAN, R-LAN and rac-LAN at concentrations ranging from 10^−10 M to 10^−4 M. The vehicle was DMSO (0.1% v/v). After the treatment, MTT test was performed and absorbance was measured at 540 nm. Treatments were performed in triplicates. The data are the mean from experiments from six different passages of cells and are expressed as a percentage of viability of control cells. The values of IC50 were calculated and are indicated in a figure. Panels C - F: AZ-AHR cells were incubated for 24 h with S-OME, R-OME, rac-OME, S-LAN, R-LAN and rac-LAN at concentrations ranging from 10^−10 M to 10^−4 M in the absence (Panels C and D - agonist mode) or in the presence (Panels E and F- antagonist mode) of TCDD (5 nM). The vehicle was DMSO (0.1% v/v). After the treatments, cells were lysed and luciferase activity was measured. Treatments were performed in triplicates in five (agonist mode) or four (antagonist mode) independent cell passages. […] Data are expressed as a fold induction of luciferase activity over control cells (Panels C and D - agonist mode) or as a percentage of maximal induction attained by TCDD (Panels E and F- antagonist mode).
Gene reporter assays were performed in two different experimental layouts. […] In antagonist mode, cells were incubated with increasing concentrations of tested compounds in combination with model agonist (TCDD; 5 nM), and half-maximal inhibitory concentrations (IC50) were calculated. […] The efficacy was calculated at concentration of compounds of 100 µM and compared to 5 nM TCDD (Figure 1C).

Data set [3] relates to CYP1A1 mRNA. To be noted: HepG2, 24 h. As to the method: as §2
Treatments were performed in triplicates.

The next data set relates to CYP1A2 protein. Description: CYP1A2 protein induction in primary human hepatocytes (western blot). To be noted: hepatocyte culture HH52, 48 h, 10 µM.
Excerpt: as §1
Total protein extracts were prepared from cells cultured on 6-well plates. Cells were washed twice with ice-cold PBS and scraped into 1 ml of PBS. The suspension was centrifuged (4500 RPM/5 min/4°C) and the pellet was resuspended in 150 µl of ice-cold lysis buffer (150 mM NaCl; 10 mM Tris pH 7.2; 0.1% (w/v) SDS; anti-protease cocktail, 1% (v/v) Triton X-100; anti-phosphatase cocktail, 1% (v/v) sodium deoxycholate; 5 mM EDTA). […] Supernatant was collected and the protein content was determined by the Bradford reagent. […] The density of bands was measured by densitometry. […]
Figure 3 Effects of omeprazole and lansoprazole enantiomers on CYP1A1 mRNA, protein and EROD activity in primary human hepatocytes. […] RT-PCR data are the mean ± SD from triplicate measurements and are expressed as fold induction over vehicle-treated cells. […] Density of bands in western blots was quantified by densitometry and the values are indicated along with respective blots. […] Upper bar graph: An activity of 7-ethoxyresorufin- O-deethylase (EROD) was measured by fluorescent spectrophotometry with 530 nm excitation and 590 nm emission filters. […] The data are expressed as fold induction over the value from control cells. Lower bar graph: A conventional MTT test was performed and absorbance was measured at 540 nm. […] The data are expressed as percentage of viability of control cells.
In general terms: Immunoblotting shows a protein as a band on a membrane.

The nature of data set [4]: MTT cytotoxicity test in AZ-AHR reporter cells. The following applies: human. As to the method: as §3
(§5) In the first series of experiments, the cytotoxicity of tested compounds was assessed in gene reporter cell line AZ-AHR. For this purpose, the cells were incubated for 24 h with S-OME, R-OME, rac-OME, S-LAN, R-LAN and rac-LAN at concentration ranging from 100 pM to 250 µM. The vehicle was DMSO (0.1% v/v). After the treatment, a conventional MTT test was performed.
as §4

On the set-up of data set [5]: method as in PMID 8710755, PMID 19298580. The following applies: after oral administration of racemic drug; ref [8], [9]; cited from earlier work.
Another data set relates to CYP1A1 protein. Description: CYP1A1 protein induction in primary human hepatocytes (western blot). The following applies: hepatocyte culture Hep220770, 48 h, 100 µM. An excerpt: Primary human hepatocytes used in this study were obtained from two sources: (i) from multiorgan donor HH52; the use of liver cells of donor HH52 was approved by “Ethical committee at the Faculty Hospital Olomouc”,and it was in accordance with Transplantation law #285/2002 Sb; “Ethical committee at the Faculty Hospital Olomouc” waived the authors from obtaining consent from the next of kin, regarding human hepatocytes obtained from liver donor HH52. (ii) long-term human hepatocytes in monolayer Batch HEP220770 (person), Batch HEP220774 (person) were purchased from Biopredic International (Biopredic International, Rennes, France). Cells were cultured in serum-free medium. […]
Total protein extracts were prepared from cells cultured on 6-well plates. […] Supernatant was collected and the protein content was determined by the Bradford reagent. […] The density of bands was measured by densitometry. […]
Figure 3 Effects of omeprazole and lansoprazole enantiomers on CYP1A1 mRNA, protein and EROD activity in primary human hepatocytes. […] RT-PCR data are the mean ± SD from triplicate measurements and are expressed as fold induction over vehicle-treated cells. […] Density of bands in western blots was quantified by densitometry and the values are indicated along with respective blots. […] The data are expressed as fold induction over the value from control cells. […]

The next data set has as its system AZ-AHR cells. The data set is described as follows: MTT cytotoxicity test in AZ-AHR reporter cells. To be noted: AZ-AHR cells, 24 h, MTT, concentrations up to 250 µM. As to the method:
as §3, §5, §4

Setting [6] is: hepatocyte culture Hep220770, 24 h, 100 µM.

On to `Cc1c(OCC(F)(F)F)ccnc1C[S@@+]([O-])c1nc2ccccc2[nH]1` [R-LAN, R-lansoprazole], for which the “CYP1A1 mRNA induction” value in the data set with CYP1A1 mRNA [1] (hepatocyte culture HH52, 24 h, 100 µM) is given as 17 % of TCDD induction. Moreover, in the data set with CYP1A1 mRNA [1] (setting [6]), the “CYP1A1 mRNA induction” value is 575 fold. Also, in the data set with CYP1A2 mRNA, the “effect on CYP1A2 mRNA relative to S-LAN” value is “two times stronger”. Further, in data set [2], the AhR agonist efficacy is recorded as 23.0±10.0% and the EC50 at 24 h was 5.7 ± 2.9 µM. Also, in the data set with CYP1A1 mRNA [3] (100 µM), the “CYP1A1 mRNA induction relative to S-LAN” value is reported as “four times stronger” and the “CYP1A1 mRNA induction relative to rac-LAN” value is “two times stronger”. In addition, the “CYP1A2 protein induction” value with CYP1A2 protein is on record as “strong induction”. Besides, the IC50 at 24 h in data set [4] was greater than 250 µM. Also, in data set [5], the “share of circulating drug” value is listed as “more than 80%” and the “systemic exposure relative to the S-enantiomer” value is 5 fold.

For `COc1ccc2[nH]c([S+]([O-])Cc3ncc(C)c(OC)c3C)nc2c1` (racemic) [rac-OME, rac-omeprazole], the “CYP1A1 mRNA induction” value is on record as 740 fold in the data set on CYP1A1 mRNA [1] (setting [6]); 706 fold with CYP1A1 mRNA [1] (hepatocyte culture Hep220770, 24 h, 250 µM); “approximately 180 fold” in the data set on CYP1A1 mRNA [3] (250 µM). The “CYP1A1 protein induction” value in the data set with CYP1A1 protein is listed as “strong induction”. Besides, the AhR agonist efficacy in data set [2] is 51.4±30.4%. Moreover, in [2], the EC50 at 24 h is 30.1 ± 2.2 µM. The concentration for half-maximal inhibition (IC50) at 24 h in data set [4] is greater than 250 µM. Moreover, the “cytotoxicity” value with AZ-AHR cells is “not cytotoxic”.

The term EC50 denotes the concentration at which the effect is half-maximal. The IC50 is the concentration that gives 50% inhibition. A lower IC50 goes with higher potency.

The record behind these values is PMC4041848, “Differential Effects of Omeprazole and Lansoprazole Enantiomers on Aryl Hydrocarbon Receptor in Human Hepatocytes and Cell Lines” (PLoS ONE, 2014).
